According to patent US7632811B2, “Analogs of parathyroid hormone” (Societe de Conseils de Recherches et D'Applications …, priority 1995, dated 2009):
Non-standard residues stand in square brackets, D forms with d. Residues, ends and D or L forms follow the SMILES beside them. Cha = N[C@@H](CC1CCCCC1)C(=O)O

Target: T1, PTH receptor present on SaOS-2 (human osteosarcoma cells) (Homo sapiens, UniProt Q03431)
T1 construct: host or cells: SaOS-2 human osteosarcoma cells (intact, confluent monolayers)
T1 sequence (Q03431 27-593): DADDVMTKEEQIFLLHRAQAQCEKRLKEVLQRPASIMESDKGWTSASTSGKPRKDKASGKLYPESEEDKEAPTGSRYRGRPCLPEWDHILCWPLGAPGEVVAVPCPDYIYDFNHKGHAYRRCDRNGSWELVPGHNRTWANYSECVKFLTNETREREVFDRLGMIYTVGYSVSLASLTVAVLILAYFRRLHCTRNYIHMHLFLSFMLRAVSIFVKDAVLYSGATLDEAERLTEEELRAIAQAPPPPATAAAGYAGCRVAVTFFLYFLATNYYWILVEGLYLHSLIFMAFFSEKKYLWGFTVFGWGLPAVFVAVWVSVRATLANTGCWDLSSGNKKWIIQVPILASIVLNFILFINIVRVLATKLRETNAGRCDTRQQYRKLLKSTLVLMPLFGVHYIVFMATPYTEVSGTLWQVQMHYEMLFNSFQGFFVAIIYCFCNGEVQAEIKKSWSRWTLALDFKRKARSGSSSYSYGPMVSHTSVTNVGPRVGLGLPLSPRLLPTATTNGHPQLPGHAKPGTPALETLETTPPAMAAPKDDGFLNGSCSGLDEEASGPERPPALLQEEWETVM
Assay: Binding to PTH receptor on SaOS-2 cells (competition with mono-125I-[Nle8,18,Tyr34(3-125I)]bPTH(1-34)NH2)
Settings: Table I, 2 hrs at room temperature, read-out: Kd (half maximal inhibition of binding of mono-125I-[Nle8,18, Tyr34(3-125I)]bPTH(1-34)NH2)
Outline: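 Confluent SaOS-2 cells in 5% FBS RPMI were incubated 2 h at room temperature with 10×10^4 cpm mono-125I-[Nle8,18,Tyr34(3-125I)]bPTH(1-34)NH2 plus competing peptide at 10^−11 to 10^−4 M. After washing, cell-bound radioactivity was counted; Kd taken as half-maximal inhibition of tracer binding.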

Kd [nM] | SMILES
10 | CC[C@H](C)[C@H](NC(=O)[C@H](CCC(=O)O)NC(=O)[C@H](CO)NC(=O)[C@@H](NC(=O)[C@@H](N)CO)C(C)C)C(=O)N[C@@H](CCC(N)=O)C(=O)N[C@@H](CC1CCCCC1)C(=O)N[C@@H](CCSC)C(=O)N[C@@H](Cc1c[nH]cn1)C(=O)N[C@@H](CC(N)=O)C(=O)N[C@@H](CC1CCCCC1)C(=O)NCC(=O)N[C@@H](CCCCN)C(=O)N[C@@H](Cc1c[nH]cn1)C(=O)N[C@@H](CC(C)C)C(=O)N[C@@H](CC(N)=O)C(=O)N[C@@H](CO)C(=O)N[C@@H](CCSC)C(=O)N[C@@H](CCC(=O)O)C(=O)N[C@@H](CCCNC(=N)N)C(=O)N[C@H](C(=O)N[C@@H](CCC(=O)O)C(=O)N[C@@H](Cc1c[nH]c2ccccc12)C(=O)N[C@@H](CC(C)C)C(=O)N[C@@H](CCCNC(=N)N)C(=O)N[C@@H](CCCCN)C(=O)N[C@@H](CCCCN)C(=O)N[C@@H](CC(C)C)C(=O)N[C@@H](CCC(N)=O)C(=O)N[C@@H](CC(=O)O)C(=O)N[C@H](C(=O)N[C@@H](Cc1c[nH]cn1)C(=O)N[C@@H](CC(N)=O)C(=O)N[C@@H](Cc1ccccc1)C(N)=O)C(C)C)C(C)C [[Cha^7,11]hPTH(1-34)NH2] (H-SVSEIQ[Cha]MHN[Cha]GKHLNSMERVEWLRKKLQDVHNF-NH2)
7 | CC[C@H](C)[C@H](NC(=O)[C@H](CCC(=O)O)NC(=O)[C@H](CO)NC(=O)[C@@H](NC(=O)[C@@H](N)CO)C(C)C)C(=O)N[C@@H](CCC(N)=O)C(=O)N[C@@H](CC(C)C)C(=O)N[C@@H](CCSC)C(=O)N[C@@H](Cc1c[nH]cn1)C(=O)N[C@@H](CC(N)=O)C(=O)N[C@@H](CC(C)C)C(=O)NCC(=O)N[C@@H](CCCCN)C(=O)N[C@@H](Cc1c[nH]cn1)C(=O)N[C@@H](CC(C)C)C(=O)N[C@@H](CC(N)=O)C(=O)N[C@@H](CO)C(=O)N[C@@H](CCSC)C(=O)N[C@@H](CCC(=O)O)C(=O)N[C@@H](CCCNC(=N)N)C(=O)N[C@H](C(=O)N[C@@H](CCC(=O)O)C(=O)N[C@@H](Cc1c[nH]c2ccccc12)C(=O)N[C@@H](CC(C)C)C(=O)N[C@@H](CCCNC(=N)N)C(=O)N[C@@H](CCCCN)C(=O)N[C@@H](CCCCN)C(=O)N[C@@H](CC(C)C)C(=O)N[C@@H](CCC(N)=O)C(=O)N[C@@H](CC(=O)O)C(=O)N[C@H](C(=O)N[C@@H](Cc1c[nH]cn1)C(=O)N[C@@H](CC(N)=O)C(=O)NC(C)(C)C(N)=O)C(C)C)C(C)C [[Aib^34]hPTH(1-34)NH2]
